Results: patent US20100331409A1, “Use of Methyl Cinnamate in the Inhibition of Candida Albicans Biofilms” (Barak Biotechnology Co., Ltd., priority 2009, published 2010)

Columns and labels:
Format in all cases: cell-based
[1] = tested on: biofilm of Candida albicans; experiment: Inhibition of biofilm of Candida albicans on polystyrene (XTT and crystal violet); conditions: concentration ranging from 0.015% to 0.125%; added 4 hours after adhesion, cultured at 37° C. to 48 hours; XTT and CV
Description: A single colony of Candida albicans was selected from YPD plate (1% (w/v) yeast extract, 2% (w/v) peptone, 2% (w/v) dextrose and 1.5% (w/v) agar), seeded in YPD liquid medium (1% (w/v) yeast extract, 2% (w/v) peptone and 2% (w/v) dextrose) and then cultured at 30° C. and 100 rpm for 16 hours. The YPD medium was washed out and the amounts of the Candida albicans cells were counted using Hematocyte Counter. The cells were diluted with RPMI 1640 medium (Gibco, Invitroge, Calif., U.S.A.) to 5×10^5 cells/ml. 200 μL of 5×10^5 cells/ml medium were added to 96-well plate and placed at 37° C. for 1 hour so that the cells could adhere to the bottom of the plate. The non-adhered cells were washed out with phosphate buffer. The material of the 96-well plate was polystyrene, which is a common material for medical device such as syringe. Subsequently, RPMI 1640 medium was added to the plate and cultured at 37° C. […] The numbers of cells in the biofilm were determined by a colorimetric assay using XTT [2,3-Bis(2-methoxy-4-nitro-5-sulfo-phenyl)-2H-tetrazolium-5-carboxanilide] (Sigma, Mo., U.S.A.) and their biomass was determined by crystal violet to find out the mature development of biofilm (Ramage G et al., Inhibition of Candida albicans Biofilm Formation by Farnesol, A Quorum-Sensing Molecule. Appl Environ Microbiol 2002, 68: 5459-5463). […]

Candida albicans [2] = experiment: MFC assay against Candida albicans; conditions: 1×10^5 CFU/ml, 96-well plates, 37° C. for 16 hours
Description: (§1) A single colony of Candida albicans was selected from YPD plate, seeded in YPD liquid medium and then cultured at 30° C. and 100 rpm for 16 hours. The medium was diluted to 1×10^5 CFU/ml. The diluted medium was added to 96-well plates containing different concentrations of methyl cinnamate and essential oil of Zanthoxylum armatum (0.00625% to 1% for methyl cinnamate and 0.025% to 0.5% for essential oil) and cultured at 37° C. for 16 hours.

Candida albicans [3] = experiment: MIC assay against Candida albicans; conditions: 1×10^5 CFU/ml, 96-well plates, 37° C. for 16 hours
Description: as §1

In the case of COC(=O)/C=C/c1ccccc1 [methyl cinnamate], the biofilm inhibited [1] is reported as 10 to 60%, the MFC (Candida albicans [2]) is reported as 0.8% and the MIC (Candida albicans [3]) is reported as 0.1%.
